Measured values: PubChem BioAssay (NCI)
Several values for one entry are separate records, joined by “and”; a condition that tells them apart may be missing. Equal entries are not always repeated.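 Briefly, cells in 96-well plates were exposed to five compound concentrations for 48 h, and endpoints were estimated by linear interpolation. GI50 = concentration required for 50% inhibition of growth. At the TGI there is no net growth.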

Tests used:
Assay in all cases: inhibition of tumour cell growth, NCI panel, 48 h
U251 CNS = test system: U251 CNS
HOP-62 NSCLC = test system: HOP-62 NSCLC
MALME-3M melanoma = test system: MALME-3M melanoma
COLO 205 colon = test system: COLO 205 colon
LOX IMVI melanoma = test system: LOX IMVI melanoma
UO-31 renal = test system: UO-31 renal
A498 renal = test system: A498 renal
CCRF-CEM leukemia = test system: CCRF-CEM leukemia
M14 melanoma = test system: M14 melanoma

SMILES | TGI (U251 CNS) | TGI (HOP-62 NSCLC) | TGI (MALME-3M melanoma) | TGI (COLO 205 colon) | TGI (LOX IMVI melanoma) | TGI (UO-31 renal) | TGI (A498 renal) | TGI (CCRF-CEM leukemia) | TGI (M14 melanoma) | GI50 (U251 CNS) | GI50 (HOP-62 NSCLC) | GI50 (MALME-3M melanoma) | GI50 (LOX IMVI melanoma) | GI50 (UO-31 renal) | GI50 (A498 renal) | GI50 (CCRF-CEM leukemia) | GI50 (M14 melanoma) | GI50 (COLO 205 colon)
C=C1CC2(CCS(=O)(=O)c3ccccc32)OC1=O (stereo unspecified) | 26 µM | 46.8 µM | 26.3 µM | 9.33 µM | 33.3 µM | 26 µM | 31.5 µM | 11 µM | 20.3 µM |  |  |  |  |  |  |  |  | 
CN(/N=C\c1ccnc2ccccc12)c1ccccc1 | 84.9 µM | 81.6 µM | 52.8 µM | 39.8 µM | 32.3 µM | 54.4 µM | 54.6 µM | 45.1 µM | 38.2 µM |  |  |  |  |  |  |  |  | 
Cc1ccc(C(=O)NCCN(C)C)c2nc3ccccc3cc12 | 4.09 µM | > 100 µM | > 100 µM | > 100 µM | 10.4 µM | 11.1 µM |  | > 100 µM | > 100 µM |  |  |  |  |  |  |  |  | 
O=C1C(=O)N(c2ccc(Cl)cc2)C(=O)C(=Nc2cccc3c(=O)[nH][nH]c(=O)c23)C1c1nc2ccccc2o1 (stereo unspecified) | > 100 µM | > 100 µM | > 100 µM | > 100 µM | > 100 µM | > 100 µM | > 100 µM | > 100 µM | > 100 µM |  |  |  |  |  |  |  |  | 
COC12OCCN(C)C1=CC(=O)C1(C)N=NCC12 (stereo unspecified) | > 100 µM |  | > 100 µM | > 100 µM | > 100 µM | > 100 µM | > 100 µM | > 100 µM | > 100 µM |  |  |  |  |  |  |  |  | 
Cc1ccc(Sc2ccccc2N)cc1 | > 100 µM | 29.6 µM | > 100 µM | > 100 µM | > 100 µM | 31.5 µM | > 100 µM | 70 µM | > 100 µM |  |  |  |  |  |  |  |  | 
CCCCCCCCCCOC(=O)NCCC | 80.6 µM |  | 54.8 µM | > 100 µM | 36.3 µM | 50.6 µM | > 100 µM | 48.4 µM | > 100 µM |  |  |  |  |  |  |  |  | 
COc1cccc(C2SCc3nc4ccccc4n32)c1 (stereo unspecified) | > 100 µM | > 100 µM | > 100 µM | > 100 µM | > 100 µM | 95.7 µM | > 100 µM | > 100 µM | > 100 µM |  |  |  |  |  |  |  |  | 
O=C(O)CN(c1ccc(F)cc1)S(=O)(=O)c1ccccc1 | > 100 µM |  | > 100 µM | > 100 µM | > 100 µM | > 100 µM | > 100 µM | > 100 µM | > 100 µM |  |  |  |  |  |  |  |  | 
Cc1ccc(S(=O)(=O)OCCOCCOCCOCCOCCOS(=O)(=O)c2ccc(C)cc2)cc1 | > 100 µM | > 100 µM | > 100 µM | 34.8 µM | > 100 µM | > 100 µM | > 100 µM | 66.4 µM | > 100 µM |  |  |  |  |  |  |  |  | 
Cc1[nH]nc2ncc(C(=O)N3CCC[C@H]3c3ccc(Cl)cc3)cc12 | > 100 µM | > 100 µM | > 100 µM |  | > 100 µM | > 100 µM | > 100 µM | > 100 µM | > 100 µM | > 100 µM | > 100 µM | > 100 µM | 47.2 µM | 61.2 µM | 32.5 µM | 36.1 µM | > 100 µM | 
COC(=O)[C@@H](C)C[C@H](Cc1ccccc1)NC(=O)c1csc([C@@H](C[C@H](C(C)C)N(C)C(=O)[C@@H](NC(=O)[C@H]2CCCN2C)C2CC2)OC(C)=O)n1 | > 25 µM | > 25 µM | > 25 µM | 0.0117 µM and < 0.0025 µM | > 25 µM | > 25 µM | 0.00817 µM and < 0.0025 µM | > 25 µM |  | 0.00287 µM and 0.0025 µM | 0.00255 µM and 0.0025 µM | 4.41 µM | 0.00477 µM and 0.0025 µM |  | 0.00147 µM and < 0.0025 µM | 0.000586 µM and 0.0025 µM |  | 0.000874 µM and < 0.0025 µM
N#CCc1nnc(N)o1 | > 100 µM |  | > 100 µM |  | > 100 µM | > 100 µM |  | > 100 µM | > 100 µM |  |  |  |  |  |  |  |  | 
CC(C)=NNC(=S)NC12CC3CC(CC(C3)C1)C2 | > 100 µM | > 100 µM |  | > 100 µM | > 100 µM | > 100 µM | > 100 µM | > 100 µM | > 100 µM |  |  |  |  |  |  |  |  | 
Cc1ccc(C2=Nc3ccccc3S(=O)C(c3ccc4c(c3)OCO4)C2)cc1 (stereo unspecified) | 31.1 µM | > 100 µM | > 100 µM | > 100 µM | 29.8 µM | > 100 µM | 51.7 µM | 83.9 µM | 38 µM |  |  |  |  |  |  |  |  | 
O=C(O)c1c2c(cc3c(=O)cc(-c4ccccc4)oc13)CCCC2 | > 100 µM | > 100 µM | > 100 µM | > 100 µM | > 100 µM | > 100 µM | > 100 µM | > 100 µM | > 100 µM |  |  |  |  |  |  |  |  | 
O=[N+]([O-])C=C1c2ccccc2-c2ccccc21 |  | 31.3 µM |  | 3.33 µM | 30.9 µM | 28.5 µM | 34.6 µM | 80.8 µM | 25.3 µM |  |  |  |  |  |  |  |  | 
CCOC(=O)CN(c1ccccc1)c1nc(=[N+](C)C)ss1 | 41.5 µM | > 100 µM | 70.4 µM | 15.4 µM |  | 54.5 µM | > 100 µM | 36.5 µM | 96.8 µM |  |  |  |  |  |  |  |  | 
O=C1CC(CC(OCc2ccccc2)C(OCc2ccccc2)C(COCc2ccccc2)OCc2ccccc2)CC(=O)N1 (stereo unspecified) | > 100 µM and 18.1 µM | > 100 µM and 73.1 µM | > 100 µM and 32.4 µM |  | > 100 µM and 22.5 µM |  | > 100 µM and 89 µM | > 100 µM | > 100 µM |  | > 100 µM and 26.8 µM | > 100 µM and 15.5 µM | > 100 µM and 10.7 µM |  | > 100 µM and 21.7 µM |  | > 100 µM and 19.8 µM | 
